ChEMBL document CHEMBL1212911, “Identification of potent and selective amidobipyridyl inhibitors of protein kinase D” (J Med Chem, 2010)

Molecular target: T1, Serine/threonine-protein kinase D2 (Homo sapiens, UniProt Q9BZL6)
T1 sequence (Q9BZL6 whole entry): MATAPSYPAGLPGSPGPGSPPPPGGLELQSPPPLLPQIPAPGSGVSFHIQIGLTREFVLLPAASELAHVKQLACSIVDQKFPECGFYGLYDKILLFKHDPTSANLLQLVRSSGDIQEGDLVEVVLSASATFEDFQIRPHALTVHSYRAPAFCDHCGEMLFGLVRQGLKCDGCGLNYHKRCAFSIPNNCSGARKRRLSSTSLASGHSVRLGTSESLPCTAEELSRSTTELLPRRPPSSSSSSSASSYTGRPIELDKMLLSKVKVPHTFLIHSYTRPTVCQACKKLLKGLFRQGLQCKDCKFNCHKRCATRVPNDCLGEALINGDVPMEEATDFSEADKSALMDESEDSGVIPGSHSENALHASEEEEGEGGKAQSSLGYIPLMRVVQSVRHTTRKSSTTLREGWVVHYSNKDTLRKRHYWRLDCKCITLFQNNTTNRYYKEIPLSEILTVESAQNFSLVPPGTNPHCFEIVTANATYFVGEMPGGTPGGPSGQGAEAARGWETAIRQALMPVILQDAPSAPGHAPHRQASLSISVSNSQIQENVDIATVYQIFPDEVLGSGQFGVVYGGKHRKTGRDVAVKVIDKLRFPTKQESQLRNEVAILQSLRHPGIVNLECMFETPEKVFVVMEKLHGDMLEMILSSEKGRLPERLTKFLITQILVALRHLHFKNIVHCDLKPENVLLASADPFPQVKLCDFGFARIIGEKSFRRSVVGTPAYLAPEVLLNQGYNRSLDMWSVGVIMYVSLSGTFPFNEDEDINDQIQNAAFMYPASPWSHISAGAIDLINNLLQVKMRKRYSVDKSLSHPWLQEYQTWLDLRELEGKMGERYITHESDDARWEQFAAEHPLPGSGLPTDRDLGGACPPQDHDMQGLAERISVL
Experiment: Inhibition of PKD2 by TR-FRET assay

NC(=O)c1cc(-c2ccnc(NC3CCCCC3)c2)nc(N2CCNCC2)c1
IC50: 9 nM
